Consider four molecules from patent publication US20070207145A1, “MOUSE/HUMAN […] ANTI-PHE[…] AND USES THEREOF” (BOARD OF TRUSTEES OF THE UNIVERSITY OF ARKANSAS, priority 2003, published 2007).

In series [1] the test system is PCP receptor. Particulars: drug discrimination and PCP receptor binding assays; cited from earlier work.
For series [2] the following is noted: in humans; cited from earlier work.
The conditions of series [3]: rats, s.c. infusion 18 mg/kg/day; cited from earlier work.
For series [4], the system named is PCP's adverse health effects. The series can be described thus: dose-dependent effects of mAb6B5 IgG on health and behavior of rats continuously infused with PCP. It counts as in vivo. As for the experimental part: This series of experiments assessed the dose-dependent effects mAb6B5 IgG on measures of health and behavior (Laurenzana et al., 2003). Rats were implanted with s.c. osmotic minipumps filled to deliver PCP at a rate of 18 mg/kg/day. Baseline PCP-induced locomotor activity was assessed (24 hr after start of PCP infusion), and then saline or various doses of mAb6B5 IgG were administered i.v. The doses of mAb6B5 ranged from 1 mol-eq of serum PCP concentration at steady state (1.53 g/kg of mAb6B5 IgG), down to 0.003 mol-eq (0.005 g/kg).
On a daily basis, rats were assessed on the amount of food eaten, body weight, general health, and evidence of chromodacryorrhea (“bloody tears” or red lacrimal secretions), an indicator of PCP-induced stress. […] The dose-dependent effects of mAb6B5 IgG on body weight produced some of the most interesting and profound effects (FIG. 8). […] PCP-induced reductions in feeding and drinking behavior obviously contributed to the weight loss in these groups. But their eating behavior normalized by day 4, probably secondary to the development of tolerance to the drug. This allowed these rats to better maintain their health and well-being. […] The PCP-induced weight loss achieved maximum on about day 4 of the experiment. […] 25% of the rats died or had to be sacrificed for humane reasons. […]

The nature of series [5]: radioimmunoassay (RIA) with [3H]PCP. Type of series: binding.
Experimental: A 100 μl aliquot of [^3H]PCP (30,000-40,000 dpm) in RIA buffer (50 mM Tris-HCl adjusted to pH 7.6, 0.15M NaCl, 0.1% BSA and 0.2% NaN3) was added to 50×14 mm sample tubes (Sarsedt, Princeton, N.J.). Then 100 γl of appropriate concentration of test ligand was added to duplicate tubes. […] A 100 μl aliquot of this dilution was then added to all tubes except the tubes for non-specific binding. To nonspecific binding tubes 100 μl of RIA buffer was added. After vortex mixing, the tubes were incubated at 4-8° C. overnight. Next, 1 ml of RIA buffer containing 5% goat anti-mouse IgG (Pel-Freez Biologicals, Rogers, Ark.) and 5% polyethylene glycol 8000 (J. T. Baker Chemical Co.) was added. The tubes were incubated for 15 min at 4-8° C. and centrifuged at the same temperature for 15 min at 2000×g to precipitate the antibody-bound reactivity. The supernatant fluid was aspirated and the pellet was resuspended in the same test tube with 2 ml of scintillation fluid (Liquiscint, National Diagnostics, Manville, N.J.). The tube was placed in a 7 ml scintillation vial and the concentration of [^3H]PCP was determined by liquid scintillation spectrometry.
The IC50 for both methods very closely approximates the affinity of an antibody.

With `CCNC1(c2ccccc2)CCCCC1` [PCE, N-ethyl-1-phenylcyclohexylamine], in series [1], the “potency relative to PCP (times more potent)” value was about 6 times.
For `c1ccc(C2(N3CCCCC3)CCCCC2)cc1` [PCP, Phencyclidine], the “volume of distribution (Vd)” value in series [2] is 6.2 L/kg. Also, in series [3], the “half-life (t1/2)” value is 4 h. Also, in series [4] (PCP-saline and PCP-0.003 mol Eq groups, days 4 through 7, 18 mg/kg/day), the “rats that died or had to be sacrificed” value turned out to be 25%. Besides, the “animals that died as a result of PCP administration” value in series [4] (repeated PCP-saline control experiment) is reported as 1 of 4.
Turning to `c1csc(C2(N3CCCCC3)CCCCC2)c1` [TCP, 1-[1-(2-thienyl)cyclohexyl]piperidine], the “potency relative to PCP (times more potent)” value in series [1] is recorded as “about 1.3 times”.

B1: ch-mAb6B5: mouse/human chimeric anti-PCP monoclonal antibody: mAb6B5 variable domains on human IgG2 heavy chain and kappa light chain constant domains (antibody)
heavy: MECSCVMLFLLSGTAGVLSEVQLQQSGPELVKPGASVKMSCKASGYTGTDYYIHWMKQSHGKSLEWIGYIYPNNGGNGYNQKFKGKATLTVDKSSSTAYMELRTLTSEDSAVYYCGRSTWDDFDYWGQGTTLTVSSASTKGPSVFPLAPCSRSTSESTAALGCLVKDYFPEPVTVSWNSGALTSGVHTFPAVLQSSGLYSLSSVVTVPSSNFGTQTYTCNVDHKPSNTKVDKTVERKCCVECPPCPAPPVAGPSVFLFPPKPKDTLMISRTPEVTCVVVDVSHEDPEVQFNWYVDGVEVHNAKTKPREEQFNSTFRVVSVLTVVHQDWLNGKEYKCKVSNKGLPAPIEKTISKTKGQPREPQVYTLPPSREEMTKNQVSLTCLVKGFYPSDIAVEWESNGQPENNYKTTPPMLDSDGSFFLYSKLTVDKSRWQQGNVFSCSVMHEALHNHYTQKSLSLSPGK
light: MKLPVRLLVLMFWIPASSSDVLMTQTPLSLPVSLGDQASISCRSSQTIVHSNGNTYLEWYLQKPGQSPKLLIYKVSNRFSGVPDRFSGSGSGTDFTLKISRVEAEDLGVYYCFQGTHAPYTFGGGTKLEIKTAAAPSVFIFPPSDEQLKSGTASVVCLLNNFYPREAKVQWKVDNALQSGNSQESVTEQDSKDSTYSLSSTLTLSKADYEKHKVYACEVTHQGLSSPVTKSFNRGEC
modifications: Amino acid sequence of anti-PCP ch-mAb6B5 heavy chain.; Amino acid sequence of anti-PCP ch-mAb6B5 light chain.
For the molecule B1, in series [5], the IC50 worked out at 1.6 nM. In addition, in series [5] (chimeric antibody), the Kd is 1.6 nM.
